Test results from patent EP3033337B1, “SUBSTITUTED IMIDAZOLES AS N-TYPE CALCIUM CHANNEL BLOCKERS” (Janssen Pharmaceutica NV, priority 2013, dated 2015).
Where two headings read alike, the source gives them in different places. Blank lines part the entries; values can stand above or below the compound they belong to.

Key:
[1] = target: T1, human N-type Ca channel (Homo sapiens, UniProt Q00975); experiment: Electrophysiological response, QPatch (depolarization -80 mV to +20 mV); settings: for N Type IC50 Data Qpatch Pulse=1 / N Type IC50 Data Qpatch Pulse=15: concentration range 0.01-0.3 µM
T1 sequence (Q00975 whole entry): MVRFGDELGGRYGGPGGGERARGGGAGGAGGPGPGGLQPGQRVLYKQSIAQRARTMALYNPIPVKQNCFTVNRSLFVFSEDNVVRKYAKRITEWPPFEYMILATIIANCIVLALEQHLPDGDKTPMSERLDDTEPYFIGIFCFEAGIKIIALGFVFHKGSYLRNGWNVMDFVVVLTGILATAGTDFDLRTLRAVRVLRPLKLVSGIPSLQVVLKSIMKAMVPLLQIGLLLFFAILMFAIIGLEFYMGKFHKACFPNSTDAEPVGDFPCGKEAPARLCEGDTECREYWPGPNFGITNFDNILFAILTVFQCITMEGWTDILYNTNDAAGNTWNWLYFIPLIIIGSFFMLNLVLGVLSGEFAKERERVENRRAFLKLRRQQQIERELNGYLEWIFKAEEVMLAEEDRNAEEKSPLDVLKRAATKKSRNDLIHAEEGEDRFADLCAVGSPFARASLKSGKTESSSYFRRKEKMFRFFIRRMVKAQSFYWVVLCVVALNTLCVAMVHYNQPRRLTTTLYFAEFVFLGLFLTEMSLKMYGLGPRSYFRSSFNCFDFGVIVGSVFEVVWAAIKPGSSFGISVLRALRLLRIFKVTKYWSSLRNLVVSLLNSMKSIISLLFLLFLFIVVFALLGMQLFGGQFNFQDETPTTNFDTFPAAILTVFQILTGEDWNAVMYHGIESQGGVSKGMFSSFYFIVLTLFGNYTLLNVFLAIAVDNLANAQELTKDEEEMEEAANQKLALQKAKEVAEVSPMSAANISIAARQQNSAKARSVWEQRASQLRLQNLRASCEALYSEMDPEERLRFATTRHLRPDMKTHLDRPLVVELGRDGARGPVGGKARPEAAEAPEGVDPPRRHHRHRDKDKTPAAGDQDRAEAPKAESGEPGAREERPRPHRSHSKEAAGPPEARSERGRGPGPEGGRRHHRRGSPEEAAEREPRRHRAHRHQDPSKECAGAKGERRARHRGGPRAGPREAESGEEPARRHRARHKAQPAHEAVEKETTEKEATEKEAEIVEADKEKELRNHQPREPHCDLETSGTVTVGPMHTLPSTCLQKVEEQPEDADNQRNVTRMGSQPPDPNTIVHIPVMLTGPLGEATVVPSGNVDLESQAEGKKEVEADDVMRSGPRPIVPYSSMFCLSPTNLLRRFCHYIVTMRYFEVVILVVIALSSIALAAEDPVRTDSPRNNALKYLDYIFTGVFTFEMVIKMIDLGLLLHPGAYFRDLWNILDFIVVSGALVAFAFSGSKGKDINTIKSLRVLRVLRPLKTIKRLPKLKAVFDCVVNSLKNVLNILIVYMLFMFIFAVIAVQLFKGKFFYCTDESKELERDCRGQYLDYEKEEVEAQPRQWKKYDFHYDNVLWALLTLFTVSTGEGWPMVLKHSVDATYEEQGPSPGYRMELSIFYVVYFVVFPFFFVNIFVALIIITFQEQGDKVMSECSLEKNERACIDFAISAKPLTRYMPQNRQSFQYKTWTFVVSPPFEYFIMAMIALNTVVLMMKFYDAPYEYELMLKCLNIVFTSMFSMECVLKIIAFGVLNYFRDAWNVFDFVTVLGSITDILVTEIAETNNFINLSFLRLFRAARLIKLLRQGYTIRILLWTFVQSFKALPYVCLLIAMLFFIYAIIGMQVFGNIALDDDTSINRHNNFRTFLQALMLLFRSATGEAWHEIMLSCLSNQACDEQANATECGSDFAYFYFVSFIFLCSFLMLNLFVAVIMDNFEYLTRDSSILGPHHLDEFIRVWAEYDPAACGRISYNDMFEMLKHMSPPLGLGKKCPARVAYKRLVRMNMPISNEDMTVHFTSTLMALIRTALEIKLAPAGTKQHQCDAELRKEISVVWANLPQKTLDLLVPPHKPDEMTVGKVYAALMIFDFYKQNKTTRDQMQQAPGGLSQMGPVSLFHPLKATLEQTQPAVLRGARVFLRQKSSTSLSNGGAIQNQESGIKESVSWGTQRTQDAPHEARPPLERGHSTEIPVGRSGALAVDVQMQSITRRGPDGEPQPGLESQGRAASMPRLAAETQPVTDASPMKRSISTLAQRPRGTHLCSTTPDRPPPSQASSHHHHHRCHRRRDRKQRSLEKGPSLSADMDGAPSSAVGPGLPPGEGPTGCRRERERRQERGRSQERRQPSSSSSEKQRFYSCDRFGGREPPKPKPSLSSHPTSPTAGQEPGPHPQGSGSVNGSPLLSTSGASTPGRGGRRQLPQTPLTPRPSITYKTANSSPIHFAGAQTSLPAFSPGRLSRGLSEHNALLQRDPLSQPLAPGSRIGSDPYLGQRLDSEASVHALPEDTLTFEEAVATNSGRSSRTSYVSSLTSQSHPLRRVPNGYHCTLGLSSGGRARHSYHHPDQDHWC
T1 sequence (P54284 whole entry partner): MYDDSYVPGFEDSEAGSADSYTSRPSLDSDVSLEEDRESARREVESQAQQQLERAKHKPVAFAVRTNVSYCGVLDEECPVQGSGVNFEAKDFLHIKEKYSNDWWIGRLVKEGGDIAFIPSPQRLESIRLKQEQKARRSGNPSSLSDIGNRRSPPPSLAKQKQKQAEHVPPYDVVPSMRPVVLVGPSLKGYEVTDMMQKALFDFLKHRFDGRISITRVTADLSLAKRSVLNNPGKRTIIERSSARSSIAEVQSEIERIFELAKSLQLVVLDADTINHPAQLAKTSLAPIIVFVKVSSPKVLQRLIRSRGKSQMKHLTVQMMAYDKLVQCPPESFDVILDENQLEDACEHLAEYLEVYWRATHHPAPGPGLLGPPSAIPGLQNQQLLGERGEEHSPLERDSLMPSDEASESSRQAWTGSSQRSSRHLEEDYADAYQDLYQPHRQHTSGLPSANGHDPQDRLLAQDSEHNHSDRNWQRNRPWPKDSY
T1 sequence (P54289 25-956 partner limits assumed): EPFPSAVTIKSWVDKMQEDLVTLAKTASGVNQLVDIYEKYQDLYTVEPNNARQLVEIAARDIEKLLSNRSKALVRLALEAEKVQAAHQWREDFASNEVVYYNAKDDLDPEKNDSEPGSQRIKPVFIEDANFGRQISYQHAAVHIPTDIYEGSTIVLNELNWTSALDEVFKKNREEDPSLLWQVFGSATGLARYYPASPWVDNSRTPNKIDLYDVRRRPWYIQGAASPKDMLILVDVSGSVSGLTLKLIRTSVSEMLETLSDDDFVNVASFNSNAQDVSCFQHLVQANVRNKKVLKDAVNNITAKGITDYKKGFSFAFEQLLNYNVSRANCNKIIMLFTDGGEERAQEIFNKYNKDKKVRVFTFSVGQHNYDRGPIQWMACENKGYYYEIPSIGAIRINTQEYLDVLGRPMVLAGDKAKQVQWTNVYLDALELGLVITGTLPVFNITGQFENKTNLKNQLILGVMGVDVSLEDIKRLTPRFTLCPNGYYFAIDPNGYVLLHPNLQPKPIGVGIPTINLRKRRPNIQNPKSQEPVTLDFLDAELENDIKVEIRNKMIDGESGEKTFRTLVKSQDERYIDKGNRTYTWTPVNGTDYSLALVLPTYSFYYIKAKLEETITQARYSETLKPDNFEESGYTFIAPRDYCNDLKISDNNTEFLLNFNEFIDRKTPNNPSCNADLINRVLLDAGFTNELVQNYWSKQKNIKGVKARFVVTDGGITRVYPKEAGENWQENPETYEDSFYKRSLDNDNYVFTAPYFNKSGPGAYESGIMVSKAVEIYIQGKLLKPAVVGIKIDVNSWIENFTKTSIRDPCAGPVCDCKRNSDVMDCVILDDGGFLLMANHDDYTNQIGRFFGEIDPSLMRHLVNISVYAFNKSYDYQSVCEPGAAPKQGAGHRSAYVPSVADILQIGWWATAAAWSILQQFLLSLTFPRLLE
T1 sequence (P54289 957-1103 partner limits assumed): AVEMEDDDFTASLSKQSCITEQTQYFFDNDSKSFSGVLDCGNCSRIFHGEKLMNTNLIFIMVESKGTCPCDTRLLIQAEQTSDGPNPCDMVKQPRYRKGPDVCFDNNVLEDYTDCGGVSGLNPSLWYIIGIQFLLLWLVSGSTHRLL

[2] = target: T1, human N-type Ca channel; experiment: Calcium influx assay (FDSS), KCl depolarization, Fluo8 dye; format: cell-based; set-up: host or cells: HEK 293; settings: HEK 293 cells expressing human N-type Ca channel; 100 mM KCl; read-out: N Type IC50 Data FDSS
Experimental: All cell culture reagents were procured from HyClone and other reagents were from Fisher. Recombinant HEK 293 cells expressing human N-type Ca channel (Millipore) were maintained in DMEM F12 containing 10% FBS and selection antibiotics at 37 °C in 5% CO2.
Cells were incubated at 30 °C in 5% CO2 overnight. The medium was removed and cells were loaded with Fluo8 dye (AAT Bioquest) at 37 °C and 30 °C, 30 min each in darkness. Cells were washed four times with wash buffer (16 mM Herep pH 7.2, 2 mM CaCl2, 1 mM MgCl2, 5 mM glucose, 140 mM choline chloride and 2 mM KCl) leaving 15 µL buffer after the last wash. Compounds of Formula (I), serially diluted, were added to the cell plate. The plates were incubated in darkness for 15 min. Cells were depolarized with 100 mM KCl and Ca influx was measured.

[3] = N Type IC50 Data Qpatch Pulse=1, Pulse=1, concentration range 0.01-1 µM
[4] = N Type IC50 Data Qpatch Pulse=15, Pulse=15, concentration range 0.01-1 µM
[5] = read-out: N Type IC50 Data Qpatch Pulse=15, Pulse=15, concentration range 0.01-1 µM
[6] = N Type IC50 Data Qpatch Pulse=15, Pulse=15, concentration range 0.3-10 µM
[7] = read-out: Qpatch Pulse=1 (percent inhibition)
[8] = N Type IC50 Data Qpatch Pulse=1, Pulse=1, concentration range 0.3-10 µM
[9] = read-out: Qpatch Pulse=15 (percent inhibition)

IC50 [1, 3]: > 1000 nM
IC50 [1, 4]: 971 nM
IC50 [2]: 215 nM
Structure (SMILES): COc1nccnc1-c1nc(C2CC(C)(C)OC(C)(C)C2)cn1-c1ccc(Cl)cc1 [Compound 50, 2-(1-(4-chlorophenyl)-4-(2,2,6,6-tetramethyltetrahydro-2H-pyran-4-yl)-1H-imidazol-2-yl)-3-methoxypyrazine]

N Type IC50 Data Qpatch Pulse=1 ([1]; Pulse=1): poor fit(0.01-0.3 µM)
N Type IC50 Data Qpatch Pulse=15 ([1]; Pulse=15): poor fit(0.01-0.3 µM)
IC50 [2]: 1640 nM
Structure (SMILES): COc1ncccc1-c1nc(C2CC(C)(C)OC(C)(C)C2)cn1Cc1ccc(Cl)cc1 [Compound 28, 3-(1-(4-chlorobenzyl)-4-(2,2,6,6-tetramethyltetrahydro-2H-pyran-4-yl)-1H-imidazol-2-yl)-2-methoxypyridine]

IC50 ([1]; read-out: N Type IC50 Data Qpatch Pulse=1, Pulse=1, concentration range 0.01-1 µM): > 1000 nM
IC50 [1, 5]: > 1000 nM
IC50 [2]: 10000 nM
Structure (SMILES): COc1ccccc1-c1nc(C2CC(C)(C)OC(C)(C)C2)cn1S(=O)(=O)C1CC1 [Compound 95, 1-(cyclopropylsulfonyl)-2-(2-methoxyphenyl)-4-(2,2,6,6-tetramethyltetrahydro-2H-pyran-4-yl)-1H-imidazole]

IC50 [1, 3]: > 1000 nM
IC50 [1, 5]: > 1000 nM
IC50 [2]: 3580 nM
Structure (SMILES): COc1ccccc1-c1nc(C2CC(C)(C)OC(C)(C)C2)cn1Cc1cccc(C#N)c1 [Compound 101, 3-((2-(2-methoxyphenyl)-4-(2,2,6,6-tetramethyltetrahydro-2H-pyran-4-yl)-1H-imidazol-1-yl)methyl) benzonitrile]

IC50 [1, 6]: 8600 nM
inhibition at 10 µM [1, 7]: 58%
IC50 [2]: 225 nM
Structure (SMILES): COc1ncccc1-c1nc(C2CC(C)(C)OC(C)(C)C2)cn1-c1ccc(Br)c(F)c1 [Compound 65, 3-(1-(4-bromo-3-fluorophenyl)-4-(2,2,6,6-tetramethyltetrahydro-2H-pyran-4-yl)-1H-imidazol-2-yl)-2-methoxypyridine]

IC50 [1, 5]: > 1000 nM
IC50 [2]: 310 nM
Structure (SMILES): COc1ccc(-n2cc(C3CC(C)(C)OC(C)(C)C3)nc2-c2cccnc2OC)cc1F [Compound 23, 3-(1-(3-fluoro-4-methoxyphenyl)-4-(2,2,6,6-tetramethyltetrahydro-2H-pyran-4-yl)-1H-imidazol-2-yl)-2-methoxypyridine]

IC50 [1, 3]: > 1000 nM
IC50 [1, 5]: > 1000 nM
IC50 [2]: 459 nM
Structure (SMILES): COc1cnccc1-c1nc(C2CC(C)(C)OC(C)(C)C2)cn1-c1ccc(F)c(F)c1 [Compound 33, 4-(1-(3,4-difluorophenyl)-4-(2,2,6,6-tetramethyltetrahydro-2H-pyran-4-yl)-1H-imidazol-2-yl)-3-methoxypyridine]

Structure (SMILES): COc1ncccc1-c1nc(C2CC(C)(C)OC(C)(C)C2)cn1-c1ccc(C#N)c(C(F)(F)F)c1 [Compound 29, 4-(2-(2-methoxypyridin-3-yl)-4-(2,2,6,6-tetramethyltetrahydro-2H-pyran-4-yl)-1H-imidazol-1-yl)-2-(trifluoromethyl) benzonitrile]
N Type IC50 Data Qpatch Pulse=1 ([1]; Pulse=1): poor fit(0.01-0.3 µM)
N Type IC50 Data Qpatch Pulse=15 ([1]; Pulse=15): poor fit(0.01-0.3 µM)
IC50 [2]: 492 nM

IC50 [1, 8]: 4400 nM
IC50 [1, 6]: 7800 nM
IC50 [2]: 83 nM
Structure (SMILES): COc1ncccc1-c1nc(C2(O)CC(C)(C)OC(C)(C)C2)cn1-c1ccc(Cl)c(F)c1 [Compound 113, 4-(1-(4-chloro-3-fluorophenyl)-2-(2-methoxypyridin-3-yl)-1H-imidazol-4-yl)-2,2,6,6-tetramethyltetrahydro-2H-pyran-4-ol]

inhibition at 10 µM [1, 7]: 53%
inhibition at 10 µM [1, 9]: 29%
IC50 [2]: 1430 nM
Structure (SMILES): COc1ccncc1-c1nc(C2CC(C)(C)OC(C)(C)C2)cn1-c1ccc(F)cc1 [Compound 69, 3-(1-(4-fluorophenyl)-4-(2,2,6,6-tetramethyltetrahydro-2H-pyran-4-yl)-1H-imidazol-2-yl)-4-methoxypyridine]

inhibition at 10 µM [1, 7]: 58%
inhibition at 10 µM [1, 9]: 62%
IC50 [2]: 1430 nM
Structure (SMILES): COc1ncccc1-c1nc(C2CC(C)(C)OC(C)(C)C2)c(Cl)n1-c1ccc(C#N)cc1 [Compound 91, 4-(5-chloro-2-(2-methoxypyridin-3-yl)-4-(2,2,6,6-tetramethyltetrahydro-2H-pyran-4-yl)-1H-imidazol-1-yl)benzonitrile]

IC50 [1, 8]: 1170 nM
IC50 [1, 6]: 680 nM
IC50 [2]: 113 nM
Structure (SMILES): COc1ccc(-n2cc(C3CC(C)(C)OC(C)(C)C3)nc2-c2ccccc2OC)cc1 [Compound 7, 2-(2-methoxyphenyl)-1-(4-methoxyphenyl)-4-(2,2,6,6-tetramethyltetrahydro-2H-pyran-4-yl)-1H-imidazole]

inhibition at 10 µM [1, 7]: 67%
inhibition at 10 µM [1, 9]: 35%
IC50 [2]: 321 nM
Structure (SMILES): COc1ncccc1-c1nc(C2CC(C)(C)OC(C)(C)C2)cn1-c1ccc(F)cc1F [Compound 30, 3-(1-(2,4-difluorophenyl)-4-(2,2,6,6-tetramethyltetrahydro-2H-pyran-4-yl)-1H-imidazol-2-yl)-2-methoxypyridine]

N Type IC50 Data Qpatch Pulse=1 ([1]; Pulse=1): poor fit(0.01-0.3 µM)
N Type IC50 Data Qpatch Pulse=15 ([1]; Pulse=15): poor fit(0.01-0.3 µM)
IC50 [2]: 3260 nM
Structure (SMILES): COc1ncccc1-c1nc(C2CC(C)(C)OC(C)(C)C2)cn1-c1cc(F)c(C#N)c(F)c1 [Compound 82, 2,6-difluoro-4-(2-(2-methoxypyridin-3-yl)-4-(2,2,6,6-tetramethyltetrahydro-2H-pyran-4-yl)-1H-imidazol-1-yl) benzonitrile]

IC50 [1, 6]: 3080 nM
IC50 [2]: 515 nM
Structure (SMILES): COc1ccccc1-c1nc(C2CC(C)(C)OC(C)(C)C2)cn1S(=O)(=O)c1ccc(Cl)cc1 [Compound 97, 1-((4-chlorophenyl)sulfonyl)-2-(2-methoxyphenyl)-4-(2,2,6,6-tetramethyltetrahydro-2H-pyran-4-yl)-1H-imidazole]

IC50 [1, 3]: 266 nM
IC50 [1, 4]: > 1000 nM
IC50 [2]: 2700 nM
Structure (SMILES): COc1ccccc1-c1nc(C2CC(C)(C)OC(C)(C)C2)cn1-c1ccc(Cl)c(C#N)c1 [Compound 14, 2-chloro-5-(2-(2-methoxyphenyl)-4-(2,2,6,6-tetramethyltetrahydro-2H-pyran-4-yl)-1H-imidazol-1-yl)benzonitrile]

IC50 [1, 8]: 6700 nM
IC50 [1, 6]: 2800 nM
IC50 [2]: 201 nM
Structure (SMILES): COc1ccccc1-c1nc(C2CC(C)(C)OC(C)(C)C2)cn1-c1ccc(C#N)c(F)c1 [Compound 81, 2-fluoro-4-(2-(2-methoxyphenyl)-4-(2,2,6,6-tetramethyltetrahydro-2H-pyran-4-yl)-1H-imidazol-1-yl) benzonitrile]

IC50 [1, 3]: 590 nM
IC50 [1, 4]: 847 nM
IC50 [2]: 75 nM
Structure (SMILES): COc1ccccc1-c1nc(C2CC(C)(C)OC(C)(C)C2)cn1-c1ccc(C)c(C#N)c1 [Compound 22, 5-(2-(2-methoxyphenyl)-4-(2,2,6,6-tetramethyltetrahydro-2H-pyran-4-yl)-1H-imidazol-1-yl)-2-methylbenzonitrile]

IC50 [2]: 464 nM
Structure (SMILES): COc1cccnc1-c1nc(C2(O)CC(C)(C)OC(C)(C)C2)cn1-c1ccc(Cl)cc1 [Compound 104, 4-(1-(4-chlorophenyl)-2-(3-methoxypyridin-2-yl)-1H-imidazol-4-yl)-2,2,6,6-tetramethyltetrahydro-2H-pyran-4-ol]

IC50 [2]: 793 nM
Structure (SMILES): COc1ncccc1-c1nc(C2CC(C)(C)OC(C)(C)C2)cn1Cc1cccc(Cl)c1 [Compound 9, 3-(1-(3-chlorobenzyl)-4-(2,2,6,6-tetramethyltetrahydro-2H-pyran-4-yl)-1H-imidazol-2-yl)-2-methoxypyridine]

IC50 [2]: 731 nM
Structure (SMILES): COc1ncccc1-c1nc(C2(O)CC(C)(C)OC(C)(C)C2)cn1-c1ccc(C#N)cc1 [Compound 115, 4-(4-(4-hydroxy-2,2,6,6-tetramethyltetrahydro-2H-pyran-4-yl)-2-(2-methoxypyridin-3-yl)-1H-imidazol-1-yl)benzonitrite]

IC50 [2]: 10000 nM
Structure (SMILES): COc1ccccc1-c1nc(C2CC(C)(C)OC(C)(C)C2)cn1Cc1cncnc1 [Compound 100, 5-((2-(2-methoxyphenyl) - 4-(2,2,6,6-tetramethyltetrahydro-2H-pyran-4-yl)-1H-imidazol-1-yl)methyl) pyrimidine]

IC50 [2]: 838 nM
Structure (SMILES): COc1cccnc1-c1nc(C2CC(C)(C)OC(C)(C)C2)cn1-c1ccc(F)c(F)c1 [Compound 35, 2-(1-(3,4-difluorophenyl)-4-(2,2,6,6-tetramethyltetrahydro-2H-pyran-4-yl)-1H-imidazol-2-yl)-3-methoxypyridine]

IC50 [2]: 166 nM
Structure (SMILES): COc1cccnc1-c1nc(C2CC(C)(C)OC(C)(C)C2)cn1-c1ccc(Cl)cc1 [Compound 67, 2-(1-(4-chlorophenyl)-4-(2,2,6,6-tetramethyltetrahydro-2H-pyran-4-yl)-1H-imidazol-2-yl)-3-methoxypyridine]

IC50 [2]: 739 nM
Structure (SMILES): COc1ccccc1-c1nc(C2CC(C)(C)OC(C)(C)C2)cn1-c1ccc(C)cn1 [Compound 6, 2-(2-(2-methoxyphenyl)-4-(2,2,6,6-tetramethyltetrahydro-2H-pyran-4-yl)-1H-imidazol-1-yl)-5-methylpyridine]

inhibition at 10 µM [1, 7]: 29%
Structure (SMILES): COc1ccccc1-c1nc(C2=CC(C)(C)OC(C)(C)C2)cn1-c1ccc(C#N)c(F)c1 [Compound 126]
